Data published in US20190070170A1, “METHOD OF S[…]-1” (Macau University of Science and Technology, priority 2017, published 2019).

Legend:
COX-1 = COX-1 protein expression in IL-1β-stimulated A549 cells (western blotting); format: cell-based; conditions: IL-1β with SIN or DEX for 48 h
Method: RAW264.7 and A549 cell lines were obtained from American Type Culture Collection (ATCC, Manassas, Va., USA) and maintained in DMEM (RAW264.7) or 1640 (A549) medium containing 10% FBS (Gibco-BRL, Grand Island, N.Y., USA) and antibiotics at 37° C. in a humidified atmosphere containing 5% CO2. RAW264.7 cells were plated in 6-well plates at a density of 4×10^5 cells and incubated for 24 h, then the cells were pretreated with different concentrations of SIN for 1 h before stimulating with LPS (100 ng/ml). A549 cells were seeded in 6-well plates at a density of 1×10^5 cells and incubated for 24 h, followed by pretreatment with SIN. A549 cells were then stimulated by IL-1β (1 ng/ml).
Whole-cell and nuclear proteins were obtained using RIPA lysis buffer (CST, Boston, Mass., USA) and Nuclear and Cytoplasmic Extraction Reagents kit from Thermo Scientific (Asheville, N.C., USA), respectively. For immunoblotting, proteins from whole-cell, cytoplasm, nuclear, and microsomal fractions were separated on SDS-PAGE, then transferred onto a nitrocellulose membrane from GE Healthcare Life Sciences (Buckinghamshire, UK), and incubated with 5% skimmed milk at room temperature for 1 h. […] The levels of protein expression were measured using Odyssey v3.0 software from Li-COR (Lincoln, Nebr., USA).

mPGES-1 = mPGES-1 protein expression in hind paws of CIA DBA/1 mice; format: in vivo; conditions: SIN 100 mg/kg i.p. or MTX 10 mg/kg/week p.o.
Method: Female DBA/1 mice (8-9 weeks old) were purchased from Shanghai SiLaike (SLAC) Laboratory Animal Company (Shanghai, China) and fed with a chow diet and water at room temperature. Equal volume of complete Freuend's adjuvant (CFA) and Bovine Type II Collagen (CII) were mixed and emulsified using a homogenizer (13,000 rpm) on ice. On day 0, DBA/1 mice were immunized by injecting 50 μl of CII in CFA in the tail, approximately 2 cm from the base of the tail. […] The incidence of joint swelling in each group was recorded every two days since drug treatment. […]
Frozen paws were pulverized in liquid nitrogen using a stainless steel mortar and pestle, then re-suspended in 8 volumes of ice-cold PBS from Invitrogen (San Diego, Calif., USA) with 2.6 mM DTT from Promega (Madison, Wis., USA) and 2×Complete Protease Inhibitor mixture from Roche (Mannheim, Germany), and homogenized on ice bath using a tissue homogenizer from T25 digital, IKA (Stanfen, Germany) at 10,000 rpm/min for 5 min. […] The protein concentrations were measured using a Bio-Rad protein assay kit (Hercules, Calif., USA). […]
(§1) Whole-cell and nuclear proteins were obtained using RIPA lysis buffer (CST, Boston, Mass., USA) and Nuclear and Cytoplasmic Extraction Reagents kit from Thermo Scientific (Asheville, N.C., USA), respectively. […] The levels of protein expression were measured using Odyssey v3.0 software from Li-COR (Lincoln, Nebr., USA).

C/EBPβ = C/EBPβ phosphorylation and nuclear translocation in LPS-stimulated rat peritoneal macrophages (western blotting, immunofluorescence); format: cell-based; conditions: SIN 1 h
Method: Sprague-Dawley (SD) rats from the University of Hong Kong were housed in cages with free access to food and water. Peritoneal macrophages of SD rats were isolated as described in Liu J. et al., Pharmacological research 2016, 111:303-315. Briefly, untreated rats were sacrificed and after laparotomy, about 50 ml cold sterile Hank's balanced salt solution (HBSS) was used to lavage the peritoneal cavity at twice, and then the peritoneal lavage fluid was collected and centrifuged at 1500 rpm for 10 min. The cell pellets was suspended at a density 1.5×10^6 cells/ml in pre-hearted DMEM medium with 10% heat-inactivated FBS, penicillin G (100 units/ml), streptomycin ([…]), and L-glutamine (2 mM), followed by seeding in 6-well plates at a density of 4.5×10^6 cells and incubation for 2 h. Then the medium were discarded to remove the non-adherent cells. The adherent cells were further washed for two times with pre-heated DMEM medium to remove floating cells. Next, cells were pre-treated with various concentration of SIN for 1 h, followed by stimulation with LPS (1 μg/ml).
as §1, with “USA). […]” for “USA).”

NF-κB = test: EMSA for NF-κB DNA binding activity in LPS-stimulated rat peritoneal macrophages; format: cell-based; conditions: LPS-induced, nuclear extract
Method: Nuclear extract proteins (10 μg) for the assay of the DNA binding activity of NF-κB were tested with a biotin-labeled oligonucleotide bio-NF-κB probe according to manufacturer's instructions of EMSA kit (Viagene Biotech).

COC1=C[C@@H]2[C@@H]3Cc4ccc(OC)c(O)c4[C@]2(CCN3C)CC1=O [SIN, sinomenine]
COX-1 protein expression (COX-1): did not suppress
mPGES-1 protein expression in inflamed hind paws (mPGES-1): significantly decreased
LPS-induced phosphorylation of C/EBPβ (Ser105 and T235+T188) (C/EBPβ; LPS 30 min): inhibitory effects
LPS-induced nuclear translocation of C/EBPβ (C/EBPβ; LPS 2 h): inhibitory effects
NF-κB DNA binding activity (EMSA) (NF-κB): capable of suppressing
